Structures are written as SMILES.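 Each compound was tested at five concentrations against cells in 96-well plates for 48 hours. TGI: concentration producing complete growth inhibition.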 Some results are limits rather than exact numbers.

Among the test systems are ACHN renal; BT-549 breast; EKVX NSCLC; KM12 colon; LOX IMVI melanoma; M14 melanoma; MOLT-4 leukemia; NCI-H23 lung; OVCAR-8 ovarian; SF-268 CNS; SF-295 CNS; SK-MEL-28 melanoma; SK-OV-3 ovarian; SNB-75 CNS; UACC-257 melanoma; UACC-62 melanoma; UO-31 renal; MCF7 breast; SK-MEL-2 melanoma.
Test in all cases: NCI anticancer screen, dose series, 48 h

`Oc1c(Cl)ccc2cccnc12`: the TGI in the experiment with ACHN renal is 35.8 µM; in the experiment with BT-549 breast it was more than 100 µM; with EKVX NSCLC, 39.4 µM; in the experiment with KM12 colon, more than 100 µM; in the experiment on LOX IMVI melanoma it was 29.7 µM; in the experiment with M14 melanoma, more than 100 µM. In addition, the TGI in the experiment with MOLT-4 leukemia is 5.76 µM; with NCI-H23 lung, more than 100 µM; in the experiment with OVCAR-8 ovarian, more than 100 µM; in the experiment with SF-268 CNS it was more than 100 µM; in the experiment on SF-295 CNS it was 68.4 µM; with SK-MEL-28 melanoma, more than 100 µM. Besides, the TGI in the experiment on SK-OV-3 ovarian is more than 100 µM; in the experiment on SNB-75 CNS it was 89.6 µM; in the experiment on UACC-257 melanoma, 84.2 µM; in the experiment with UACC-62 melanoma, 8.09 µM; in the experiment on UO-31 renal, 41.1 µM.
As to `NC(=O)ON=C1CCN(Cc2ccccc2)CC1`, the TGI in the experiment on ACHN renal, in the experiment on EKVX NSCLC, in the experiment on KM12 colon, in the experiment on LOX IMVI melanoma, in the experiment with M14 melanoma and in the experiment with MCF7 breast was more than 100 µM each time. Besides, the TGI in the experiment with MOLT-4 leukemia, with NCI-H23 lung, in the experiment with OVCAR-8 ovarian, with SF-268 CNS, with SF-295 CNS and in the experiment with SK-MEL-2 melanoma was more than 100 µM in each case. Further, the TGI with SK-MEL-28 melanoma, with SK-OV-3 ovarian, with SNB-75 CNS, in the experiment with UACC-257 melanoma, with UACC-62 melanoma and in the experiment with UO-31 renal was more than 100 µM each time.
As to `CN(C)C(=O)c1nnsc1NN=O`, the TGI with ACHN renal, in the experiment on EKVX NSCLC, in the experiment with KM12 colon, in the experiment with LOX IMVI melanoma, in the experiment with M14 melanoma and with MCF7 breast was more than 100 µM throughout. Besides, the TGI with MOLT-4 leukemia, in the experiment on NCI-H23 lung, in the experiment with OVCAR-8 ovarian, in the experiment with SF-268 CNS, in the experiment on SF-295 CNS and with SK-MEL-2 melanoma was more than 100 µM each time. In addition, the TGI in the experiment on SK-MEL-28 melanoma, in the experiment on SK-OV-3 ovarian, with SNB-75 CNS, in the experiment with UACC-257 melanoma, in the experiment with UACC-62 melanoma and in the experiment on UO-31 renal was more than 100 µM each time.
Take `Cn1ccnc1SC(F)(F)c1nc2ccccc2o1`: the TGI in the experiment with ACHN renal, with BT-549 breast, in the experiment with KM12 colon, in the experiment on M14 melanoma, in the experiment on MCF7 breast and in the experiment with MOLT-4 leukemia was more than 100 µM in each case. The TGI in the experiment with NCI-H23 lung, in the experiment on OVCAR-8 ovarian, in the experiment with SF-268 CNS, in the experiment with SF-295 CNS, in the experiment on SK-MEL-2 melanoma and in the experiment with SK-MEL-28 melanoma was more than 100 µM each time. Besides, the TGI in the experiment with SK-OV-3 ovarian, with SNB-75 CNS, in the experiment on UACC-257 melanoma, in the experiment on UACC-62 melanoma and in the experiment with UO-31 renal was more than 100 µM throughout.
Take `C=CC1(c2ccc(Cl)c(Cl)c2)OCCO1`: the TGI in the experiment on ACHN renal, in the experiment with EKVX NSCLC, in the experiment on KM12 colon, in the experiment with LOX IMVI melanoma, in the experiment with M14 melanoma and in the experiment on MCF7 breast was more than 100 µM throughout. In addition, the TGI in the experiment on MOLT-4 leukemia, in the experiment on NCI-H23 lung, in the experiment on OVCAR-8 ovarian, in the experiment on SF-268 CNS, with SF-295 CNS and in the experiment with SK-MEL-2 melanoma was more than 100 µM throughout. For the same molecule, the TGI in the experiment with SK-MEL-28 melanoma is more than 100 µM; in the experiment on SK-OV-3 ovarian it was more than 100 µM; with SNB-75 CNS, 55.2 µM; in the experiment on UACC-257 melanoma, more than 100 µM; with UACC-62 melanoma, more than 100 µM; in the experiment with UO-31 renal it was more than 100 µM.
In the case of `C/C(Sc1ccccc1)=C1/CCCN(Cc2ccccc2)C1`, the TGI in the experiment on ACHN renal was more than 100 µM; with EKVX NSCLC, more than 100 µM; with KM12 colon, 98.2 µM; in the experiment with LOX IMVI melanoma, 31.8 µM; with M14 melanoma, 35 µM; in the experiment on MCF7 breast, 57.5 µM. Also, the TGI was 39.4 µM in the experiment on MOLT-4 leukemia; 79.5 µM in the experiment on NCI-H23 lung; more than 100 µM in the experiment with OVCAR-8 ovarian; more than 100 µM in the experiment on SF-268 CNS; 50.9 µM in the experiment with SF-295 CNS; 34 µM in the experiment with SK-MEL-2 melanoma. The TGI with SK-MEL-28 melanoma is 83 µM; in the experiment with SK-OV-3 ovarian it was more than 100 µM; in the experiment on SNB-75 CNS, 86.3 µM; with UACC-257 melanoma, 44.6 µM; with UACC-62 melanoma it was 47.6 µM; in the experiment on UO-31 renal, 40.9 µM.
With `CC(C)N(CCCNc1c2ccccc2nc2cccc([N+](=O)[O-])c12)C(C)C`, the TGI with ACHN renal was less than 0.0301 µM; in the experiment with BT-549 breast, less than 0.0442 µM; in the experiment with LOX IMVI melanoma, 0.0637 µM; with M14 melanoma it was less than 0.01 µM; with MCF7 breast, 13.2 µM; in the experiment with NCI-H23 lung, less than 0.0183 µM. Moreover, the TGI in the experiment on OVCAR-8 ovarian was less than 0.0467 µM; with SF-295 CNS it was less than 0.0457 µM; with SK-MEL-2 melanoma, 0.24 µM; in the experiment on SK-MEL-28 melanoma, less than 0.01 µM; in the experiment with SNB-75 CNS, 0.149 µM; in the experiment with UACC-257 melanoma, less than 0.0508 µM.
`COc1cccc(N=N/C(=N/NC(=O)c2cc(Cl)ccc2O)c2ccc(N(CCC#N)CCC#N)cc2C)c1`: the TGI with ACHN renal was more than 100 µM; with BT-549 breast, more than 100 µM; in the experiment on EKVX NSCLC, more than 100 µM; with KM12 colon, more than 100 µM; with M14 melanoma, more than 100 µM; with MCF7 breast, 79.1 µM. The TGI with MOLT-4 leukemia is 89.6 µM; in the experiment on NCI-H23 lung, more than 100 µM; with OVCAR-8 ovarian, 55.3 µM; in the experiment with SF-268 CNS, more than 100 µM; in the experiment on SF-295 CNS, more than 100 µM; with SK-MEL-2 melanoma, more than 100 µM. In addition, the TGI in the experiment on SK-OV-3 ovarian was more than 100 µM; with SNB-75 CNS, more than 100 µM; with UACC-257 melanoma, 59.5 µM; in the experiment with UACC-62 melanoma, more than 100 µM; in the experiment on UO-31 renal it was more than 100 µM.

These data come from PubChem BioAssay (NCI).
